In PubChem BioAssay (NCI):
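Each compound was tested at five concentrations against cells in 96-well plates for 48 hours. TGI: concentration producing complete growth inhibition.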

Assays:
Assay in all cases: NCI tumour cell line growth inhibition, 48 h
[1] = tested on: SF-268 CNS
[2] = tested on: CCRF-CEM leukemia
[3] = tested on: OVCAR-4 ovarian
[4] = tested on: A549 NSCLC
[5] = tested on: SF-295 CNS
[6] = tested on: U251 CNS
[7] = tested on: HL-60(TB) leukemia
[8] = tested on: SK-MEL-28 melanoma
[9] = tested on: 786-0 renal
[10] = tested on: A498 renal
[11] = tested on: SW-620 colon
[12] = tested on: PC-3 prostate
[13] = tested on: KM12 colon
[14] = tested on: SK-OV-3 ovarian
[15] = tested on: HOP-92 NSCLC
[16] = tested on: MDA-MB-231 breast
[17] = tested on: IGROV1 ovarian
[18] = tested on: NCI-H460 lung
[19] = tested on: SK-MEL-2 melanoma

| Compound | TGI [1] [µM] | TGI [2] [µM] | TGI [3] [µM] | TGI [4] [µM] | TGI [5] [µM] | TGI [6] [µM] | TGI [7] [µM] | TGI [8] [µM] | TGI [9] [µM] | TGI [10] [µM] | TGI [11] [µM] | TGI [12] [µM] | TGI [13] [µM] | TGI [14] [µM] | TGI [15] [µM] | TGI [16] [µM] | TGI [17] [µM] | TGI [18] [µM] | TGI [19] [µM] |
| --- | --- | --- | --- | --- | --- | --- | --- | --- | --- | --- | --- | --- | --- | --- | --- | --- | --- | --- | --- |
| CCOc1ccc(NCC2CC/C(=C\c3ccc(O)cc3)C2=O)cc1 (stereo not drawn) | 30.8 | 49 | 31.5 | 48.6 | > 54.6 | 30.7 | 5.33 | 29.2 | 18 | 38.9 | 27.1 | 30.7 | 26.8 | > 58.5 | 30 | 38.4 | 33.9 | 54.2 | – |
| Cc1ccc2c(c1)-c1c(C#N)c(N)nc(-c3ccccc3)c1CCS2(=O)=O | > 100 | > 100 | > 100 | > 100 | > 100 | > 90.7 | – | > 100 | > 100 | > 80.2 | > 100 | > 100 | > 100 | 46 | > 100 | > 100 | > 51.1 | > 100 | > 100 |
| CC(C)C12C=CC(C)(CC1)n1c(=O)c3cc4ccccc4cc3c(=O)n12 (stereo not drawn) | > 100 | > 100 | > 100 | > 100 | > 100 | > 100 | > 100 | > 100 | > 100 | 79.1 | > 100 | – | > 100 | > 100 | > 100 | – | > 100 | > 100 | > 100 |
| NC(CCCCNC(=O)CNC(=O)OCc1ccccc1)C(=O)NC(CCCCNC(=O)CNC(=O)OCc1ccccc1)C(=O)NC(CCCCNC(=O)CNC(=O)OCc1ccccc1)C(=O)NC(CCCCNC(=O)CNC(=O)OCc1ccccc1)C(=O)NC(CCCCNC(=O)CNC(=O)OCc1ccccc1)C(=O)NC(CCCCNC(=O)CNC(=O)OCc1ccccc1)C(=O)O (stereo not drawn) | > 75 | > 75 | > 75 | > 75 | – | > 75 | > 75 | > 75 | > 75 | > 75 | > 75 | > 75 | – | – | – | > 75 | > 75 | > 75 | > 75 |
| COc1cccc2nc3cc(C)c(C)cc3nc12 | > 100 | > 100 | > 100 | > 100 | > 100 | > 100 | > 100 | > 100 | > 100 | > 100 | > 100 | – | > 100 | > 100 | > 100 | – | > 100 | > 100 | > 100 |
| c1ccc(C2OCCO2)c(OCCOc2cc(OCCOc3ccccc3C3OCCO3)c(OCCOc3ccccc3C3OCCO3)cc2OCCOc2ccccc2C2OCCO2)c1 | 66.5 | > 100 | 30.2 | > 100 | > 100 | 23.9 | > 100 | > 100 | 17.3 | 35.4 | > 100 | – | > 100 | 13.7 | 21 | – | 28.6 | > 100 | 47.9 |
| COc1ccc(-c2cc(=O)c3cc4c(cc3[nH]2)OCO4)cc1 | > 100 | > 100 | > 100 | > 100 | > 100 | > 100 | > 100 | > 100 | > 100 | > 100 | > 100 | – | – | – | – | – | > 100 | > 100 | > 100 |
| O=C(CNC(=O)OCc1ccccc1)NCCCCC(NC(=O)OCc1ccccc1)C(=O)NC(CCCCNC(=O)CNC(=O)OCc1ccccc1)C(=O)OCc1ccccc1 (stereo not drawn) | > 62.5 | > 62.5 | > 62.5 | > 62.5 | – | > 62.5 | > 62.5 | > 62.5 | > 62.5 | > 62.5 | > 62.5 | > 62.5 | – | – | – | > 62.5 | > 62.5 | > 62.5 | > 62.5 |
| CCOc1cc2c(cc1O)/C(=N/NS(=O)(=O)c1ccc(C)cc1)C[C@@H]1[C@@H]2CC[C@]2(C)[C@@H](O)CC[C@@H]12 | > 100 | > 100 | > 100 | > 100 | > 100 | > 100 | – | > 100 | > 100 | > 100 | > 100 | > 100 | > 100 | > 100 | > 100 | > 100 | > 100 | > 100 | > 100 |
| CC(C)C1COC(c2cccc(C3=N[C@@H](C(C)C)CO3)n2)=N1 (stereo partly drawn) | > 100 | > 100 | > 100 | > 100 | > 100 | > 100 | > 100 | > 100 | > 100 | > 100 | > 100 | – | > 100 | > 100 | > 100 | – | > 100 | > 100 | > 100 |
| Cc1ccc2c(C)c3ccc4ccccc4c3c[n+]2c1 | 14.8 | 46.4 | 45.4 | > 100 | > 81.1 | 23 | > 100 | 33 | 80.3 | > 100 | > 82.1 | – | 14.6 | > 87.2 | 52.7 | – | > 100 | 35.2 | 29.5 |
